In patent US9464093B2, “Substituted imidazo[4',5':4,5]cyclopenta[1,2-e]pyrrolo[1,2-a]pyrazines and oxazolo[4',5':4,5]cyclopenta[1,2-e]pyrrolo[1,2-a]pyrazines for treating brain cancer” (Mayo Foundation for Medical Education and Research, priority 2012, dated 2016):
Entries after “also recorded” stand apart in the source; their conditions may differ.

Experiments:
[1] = CNS pharmacokinetic study in mice (microdialysis, CE-UV); type: in vivo, C57BL/6J mice; details: 2.5 mg/kg i.p.
Method: The total of 90 male wild type C57BL/6J mice were used in this study. C57BL/6J mice were approximately 2 months of age and weighed 20˜25 g. All mice were housed in a temperature-controlled room ([…]) with a 12:12 light dark cycle (lights on at 0600). Purina 5001 Rodent Chow and tap water were available ad libitum at all times. Mouse use was approved by Mayo Foundation Institutional Animal Use and Care Committee (IACUC) and was consistent with NIH Guide for the Care and Use of Laboratory Animals. Agelastatin A was synthesized by Professor Takehiko Yoshimitsu at Graduate School of Pharmaceutical Sciences, Osaka University, Osaka, Japan. Professor Yoshimitsu has described details on the synthesis of this compound. Purity as determined by NMR spectra is >99%.
A total of five mice were used in microdialysis experiments. On the day of surgery, mice were anesthetized with gasiform isoflurane (1% isoflurane in a mixture of 20% oxygen and 80% nitrogen gas) and immobilized in a stereotaxic frame (KOPF Instruments, Tujunga, Calif.). […]
Briefly, the capillaries were preconditioned with 1 M sodium hydroxide for 2 min, water for 2 min and running buffer [100 mmol/1 solution of ammonium acetate (adjusted to pH 3.1 with acetic acid)-acetonitrile (50:50, v/v)] for 3 min. […] CNS penetration was determined as the ratio of CSF and blood area under the curve (AUC).

osteopontin mRNA = assay: Osteopontin mRNA real-time PCR; type: cell-based; details: at 12 h; normalized to GAPDH
Method: B lymphoma cells were grown at 1×10^6 cells in complete media. Cells were harvested by centrifugation, and total RNA was extracted by Trizol and PureLink kit as described by the manufacturer (Invitrogen: Carlsbad, Calif.). Residual genomic DNA contamination was removed by DNA-Free kit (Applied Biosystems: Carlsbad, Calif.). Total RNA was converted to cDNA using the High Capacity Reverse Transciption kit (Applied Biosystems: Carlsbad, Calif.) and diluted to 4 ng/μl RNA with nuclease-free water.
Ct values were determined by instrument software and relative osteopontin mRNA values were normalized to GAPDH. Significant difference of Ct values was determined using a two-tailed Student's T-test.

Raji lymphoma cells [2] = assay: Cell proliferation assay, Raji lymphoma cells (Example 3); type: cell-based; details: 100, 500, or 1,000 nM; counted on the third day; vs vehicle
Method: Raji cells were purchased from American Tissue Culture (Manassas, Va.). […] Raji cells infected with lentivirus constructs were grown in selection media containing 2.5 μg/ml puromycin. For experiments, unless specified otherwise, all cells were switched back to maintenance media.
Two-tailed student T-test was used to analyze significant difference.

Raji lymphoma cells [3] = assay: Matrigel invasion assay; type: cell-based; details: 1 hour pre-treatment with log dilutions
Method: Invasion assays were performed in triplicate using BD Biocoat Matrigel Invasion Chamber (BD Biosciences: Sparks, Md.) according to manufacturer's instructions (8-μm pore-size). Five percent serum was used as a chemoattractant in the bottom chamber. […] Viability of Raji cells was ascertained by Trypan blue test after the treatment with AA. Statistical analysis was performed using two-tailed Student's T-Test.

Raji lymphoma cells [4] = assay: Raji orthotopic murine CNS lymphoma model; type: in vivo, athymic mice; details: 1, 2.5 or 5 mg/kg i.p. for four days; vs vehicle control
Method: Athymic mice (nu/nu; 8-10 weeks old) were anesthetized with gasiform isofluorane and 25,000 Raji cells transfected with luciferase (as described in in vitro study) were stereotactically injected into the left cerebral hemisphere at coordinates (AP: 0.5 mm, LM: 2.5 mm, DV: 3 mm) from the bregma and skull at a volume of 5 μl and at a rate of 1 μl/min. The needle was left in place for 5 min after injection.
BLI was conducted using a Xenogen Lumina optical imaging system (Caliper Life Sciences, Hopkinton, Mass.). Mice were anesthetized with isofluorane before intraperitoneal injections of luciferin at a dose of 150 mg/kg, providing a saturating substrate concentration for luciferase enzyme. Peak luminescent signals were recorded 10 minutes after luciferin injection. Regions of interest encompassing the intracranial area of signal were defined using Living Image software, and the total photons/s/steradian/cm^2 was recorded.
Raji murine CNS lymphoma model was created as described in in vivo study section. After bioluminesence imaging (BLI) scanning on day 4 post intracerebral injection, animals were randomly assigned to four different groups. […] […] BLI was used for real time monitoring of tumor growth. Differences in tumor growth were statistically analyzed by ANOVA.

Question: Which results are given for `CN1C(=O)N[C@H]2[C@@H]3NC(=O)c4ccc(Br)n4[C@@H]3C[C@]21O` [AA, agelastatin A, reference compound]?
Answer: penetration into brain and eye tissue compartments [1]: shown to penetrate into the brain and eye tissue compartments; also recorded: can penetrate the brain and eye tissue compartments; expression of OPN messenger RNA (PCR) (osteopontin mRNA): transcriptionally downregulating osteopontin; also recorded: decreases the expression of OPN messenger RNA; Raji lymphoma cell proliferation (Raji lymphoma cells [2]): significantly suppressed proliferation; also recorded: decreases Raji lymphoma cell proliferation; Raji lymphoma cell invasion (Matrigel) (Raji lymphoma cells [3]): significantly decreased invasiveness; also recorded: blocks Raji lymphoma cell invasion; CNS lymphoma tumor growth (BLI) (Raji lymphoma cells [4]): significantly decreased the tumor growth; also recorded: therapeutic effect of AA treatment on the CNS lymphoma growth; survival (Kaplan-Meier) (Raji lymphoma cells [4]): significantly prolonged the survival; also recorded: survival prolongation
